Assay [1] has as its target Mitogen-activated protein kinase kinase kinase kinase 5 (Homo sapiens) (UniProt Q9Y4K4). Particulars: at 10 µM.
For assay [2], the target named is T1, Rhodopsin kinase GRK7 (Homo sapiens) (UniProt Q8WTQ7).
T1 sequence (whole entry): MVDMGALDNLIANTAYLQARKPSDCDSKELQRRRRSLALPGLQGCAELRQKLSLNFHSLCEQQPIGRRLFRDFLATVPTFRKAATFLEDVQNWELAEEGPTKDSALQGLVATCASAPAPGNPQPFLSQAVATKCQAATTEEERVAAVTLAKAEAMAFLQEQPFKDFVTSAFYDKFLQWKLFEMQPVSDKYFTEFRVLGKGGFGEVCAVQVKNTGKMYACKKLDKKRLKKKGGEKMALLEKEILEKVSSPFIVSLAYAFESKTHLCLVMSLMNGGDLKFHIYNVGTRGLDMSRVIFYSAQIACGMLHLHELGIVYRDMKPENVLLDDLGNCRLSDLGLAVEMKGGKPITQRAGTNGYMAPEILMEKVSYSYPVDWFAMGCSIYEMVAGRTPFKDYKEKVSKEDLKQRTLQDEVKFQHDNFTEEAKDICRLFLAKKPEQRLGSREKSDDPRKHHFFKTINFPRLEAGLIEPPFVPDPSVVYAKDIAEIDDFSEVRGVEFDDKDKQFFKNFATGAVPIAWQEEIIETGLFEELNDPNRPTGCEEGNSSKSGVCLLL
In words: Selectivity interaction (KinomeScan (DiscoverX)) EUB0000595a GRK7. Particulars: at 10 µM.

In assay [3] the target is T2, cGMP-dependent protein kinase 2 (Homo sapiens) (UniProt Q13237).
T2 sequence (whole entry): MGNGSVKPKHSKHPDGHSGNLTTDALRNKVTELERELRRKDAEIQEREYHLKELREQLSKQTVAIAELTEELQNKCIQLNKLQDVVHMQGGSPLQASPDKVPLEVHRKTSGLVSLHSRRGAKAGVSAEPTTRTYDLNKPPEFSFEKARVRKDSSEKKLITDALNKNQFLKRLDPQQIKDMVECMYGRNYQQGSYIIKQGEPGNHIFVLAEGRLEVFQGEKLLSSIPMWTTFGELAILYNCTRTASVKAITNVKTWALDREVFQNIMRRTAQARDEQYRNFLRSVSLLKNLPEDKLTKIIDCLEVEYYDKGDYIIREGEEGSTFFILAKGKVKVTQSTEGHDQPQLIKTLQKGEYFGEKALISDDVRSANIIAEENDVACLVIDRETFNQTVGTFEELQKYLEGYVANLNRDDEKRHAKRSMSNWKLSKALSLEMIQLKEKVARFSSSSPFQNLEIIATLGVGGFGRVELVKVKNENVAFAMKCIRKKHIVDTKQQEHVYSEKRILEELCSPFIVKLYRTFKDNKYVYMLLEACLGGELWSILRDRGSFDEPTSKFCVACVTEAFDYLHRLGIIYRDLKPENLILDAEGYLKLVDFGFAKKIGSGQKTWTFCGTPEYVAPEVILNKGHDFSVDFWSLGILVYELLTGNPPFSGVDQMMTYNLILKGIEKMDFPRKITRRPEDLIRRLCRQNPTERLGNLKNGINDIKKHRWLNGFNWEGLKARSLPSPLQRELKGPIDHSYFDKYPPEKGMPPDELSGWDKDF
The settings on record: at 10 µM.

The subject of assay [4] is EML4-ALK (Homo sapiens), Q9UM73+Q9HC35 [UNDEFINED MUTATION]. The assay is described as follows: (§1) Selectivity interaction (ProQinase) EUB0000171b ALK. It is filed as protein assay. The settings on record: at 5 µM.
Assay [5] has as its system NPM/ALK (Nucleophosmin/ALK tyrosine kinase receptor) (Homo sapiens), Q9UM73+P06748 [F1174L]. Described as §1. It is filed as protein assay.
The target of the next assay is EML4-ALK (Homo sapiens) (UniProt Q9UM73+Q9HC35). The assay is described as §1. It is filed as protein assay.
Assay [6] has as its target T3, Interleukin-1 receptor-associated kinase 3 (Homo sapiens) (UniProt Q9Y616).
T3 sequence (whole entry): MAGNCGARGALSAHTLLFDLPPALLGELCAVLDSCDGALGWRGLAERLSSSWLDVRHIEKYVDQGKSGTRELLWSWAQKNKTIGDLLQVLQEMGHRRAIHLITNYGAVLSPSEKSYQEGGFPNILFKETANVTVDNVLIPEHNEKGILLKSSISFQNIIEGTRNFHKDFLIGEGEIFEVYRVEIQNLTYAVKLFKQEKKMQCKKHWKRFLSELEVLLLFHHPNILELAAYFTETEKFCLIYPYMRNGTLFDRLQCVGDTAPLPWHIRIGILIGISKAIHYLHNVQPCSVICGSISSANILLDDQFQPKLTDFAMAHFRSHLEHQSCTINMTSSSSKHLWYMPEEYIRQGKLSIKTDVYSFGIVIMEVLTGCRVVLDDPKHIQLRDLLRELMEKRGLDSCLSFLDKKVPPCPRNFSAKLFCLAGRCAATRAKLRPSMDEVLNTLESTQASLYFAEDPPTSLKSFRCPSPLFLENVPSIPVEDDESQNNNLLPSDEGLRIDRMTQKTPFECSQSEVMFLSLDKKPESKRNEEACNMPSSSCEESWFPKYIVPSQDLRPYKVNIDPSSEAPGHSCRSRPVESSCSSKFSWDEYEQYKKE
The assay is described as follows: Selectivity interaction (KinomeScan (DiscoverX)) EUB0000092b IRAK3. The settings on record: at 10 µM.

% of control data for four compounds are collected here from ChEMBL document CHEMBL5465560, “Selectivity Literature for EUbOPEN Chemogenomic Library” (2024).

EML4-ALK (Homo sapiens), sequence (Q9HC35 whole entry partner): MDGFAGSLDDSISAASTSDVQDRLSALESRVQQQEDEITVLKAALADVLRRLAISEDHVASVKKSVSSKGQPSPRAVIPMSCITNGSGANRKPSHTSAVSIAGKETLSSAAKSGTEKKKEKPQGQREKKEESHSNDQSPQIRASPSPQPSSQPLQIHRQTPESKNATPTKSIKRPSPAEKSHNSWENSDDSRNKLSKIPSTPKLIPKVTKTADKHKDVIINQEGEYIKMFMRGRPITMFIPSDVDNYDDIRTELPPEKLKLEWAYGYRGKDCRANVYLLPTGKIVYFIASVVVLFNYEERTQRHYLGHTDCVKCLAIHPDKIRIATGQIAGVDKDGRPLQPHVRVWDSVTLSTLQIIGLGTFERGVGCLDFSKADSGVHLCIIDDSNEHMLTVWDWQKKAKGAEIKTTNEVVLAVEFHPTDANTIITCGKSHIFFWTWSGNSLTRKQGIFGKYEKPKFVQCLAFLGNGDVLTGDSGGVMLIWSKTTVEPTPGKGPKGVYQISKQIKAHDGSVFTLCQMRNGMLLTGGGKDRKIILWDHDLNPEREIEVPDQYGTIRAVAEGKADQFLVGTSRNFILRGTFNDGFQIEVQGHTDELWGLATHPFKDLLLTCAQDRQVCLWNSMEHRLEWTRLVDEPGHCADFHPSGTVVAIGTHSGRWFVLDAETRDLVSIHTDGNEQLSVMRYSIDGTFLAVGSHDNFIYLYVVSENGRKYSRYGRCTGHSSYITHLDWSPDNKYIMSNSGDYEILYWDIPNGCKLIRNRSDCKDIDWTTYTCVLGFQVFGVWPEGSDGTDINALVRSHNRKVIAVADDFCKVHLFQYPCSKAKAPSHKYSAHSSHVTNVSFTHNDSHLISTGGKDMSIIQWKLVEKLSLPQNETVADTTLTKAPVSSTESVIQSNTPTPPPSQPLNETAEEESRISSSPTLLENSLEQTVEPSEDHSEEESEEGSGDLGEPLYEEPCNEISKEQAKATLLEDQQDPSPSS
EML4-ALK (Homo sapiens), sequence (Q9UM73 19-1620 limits assumed): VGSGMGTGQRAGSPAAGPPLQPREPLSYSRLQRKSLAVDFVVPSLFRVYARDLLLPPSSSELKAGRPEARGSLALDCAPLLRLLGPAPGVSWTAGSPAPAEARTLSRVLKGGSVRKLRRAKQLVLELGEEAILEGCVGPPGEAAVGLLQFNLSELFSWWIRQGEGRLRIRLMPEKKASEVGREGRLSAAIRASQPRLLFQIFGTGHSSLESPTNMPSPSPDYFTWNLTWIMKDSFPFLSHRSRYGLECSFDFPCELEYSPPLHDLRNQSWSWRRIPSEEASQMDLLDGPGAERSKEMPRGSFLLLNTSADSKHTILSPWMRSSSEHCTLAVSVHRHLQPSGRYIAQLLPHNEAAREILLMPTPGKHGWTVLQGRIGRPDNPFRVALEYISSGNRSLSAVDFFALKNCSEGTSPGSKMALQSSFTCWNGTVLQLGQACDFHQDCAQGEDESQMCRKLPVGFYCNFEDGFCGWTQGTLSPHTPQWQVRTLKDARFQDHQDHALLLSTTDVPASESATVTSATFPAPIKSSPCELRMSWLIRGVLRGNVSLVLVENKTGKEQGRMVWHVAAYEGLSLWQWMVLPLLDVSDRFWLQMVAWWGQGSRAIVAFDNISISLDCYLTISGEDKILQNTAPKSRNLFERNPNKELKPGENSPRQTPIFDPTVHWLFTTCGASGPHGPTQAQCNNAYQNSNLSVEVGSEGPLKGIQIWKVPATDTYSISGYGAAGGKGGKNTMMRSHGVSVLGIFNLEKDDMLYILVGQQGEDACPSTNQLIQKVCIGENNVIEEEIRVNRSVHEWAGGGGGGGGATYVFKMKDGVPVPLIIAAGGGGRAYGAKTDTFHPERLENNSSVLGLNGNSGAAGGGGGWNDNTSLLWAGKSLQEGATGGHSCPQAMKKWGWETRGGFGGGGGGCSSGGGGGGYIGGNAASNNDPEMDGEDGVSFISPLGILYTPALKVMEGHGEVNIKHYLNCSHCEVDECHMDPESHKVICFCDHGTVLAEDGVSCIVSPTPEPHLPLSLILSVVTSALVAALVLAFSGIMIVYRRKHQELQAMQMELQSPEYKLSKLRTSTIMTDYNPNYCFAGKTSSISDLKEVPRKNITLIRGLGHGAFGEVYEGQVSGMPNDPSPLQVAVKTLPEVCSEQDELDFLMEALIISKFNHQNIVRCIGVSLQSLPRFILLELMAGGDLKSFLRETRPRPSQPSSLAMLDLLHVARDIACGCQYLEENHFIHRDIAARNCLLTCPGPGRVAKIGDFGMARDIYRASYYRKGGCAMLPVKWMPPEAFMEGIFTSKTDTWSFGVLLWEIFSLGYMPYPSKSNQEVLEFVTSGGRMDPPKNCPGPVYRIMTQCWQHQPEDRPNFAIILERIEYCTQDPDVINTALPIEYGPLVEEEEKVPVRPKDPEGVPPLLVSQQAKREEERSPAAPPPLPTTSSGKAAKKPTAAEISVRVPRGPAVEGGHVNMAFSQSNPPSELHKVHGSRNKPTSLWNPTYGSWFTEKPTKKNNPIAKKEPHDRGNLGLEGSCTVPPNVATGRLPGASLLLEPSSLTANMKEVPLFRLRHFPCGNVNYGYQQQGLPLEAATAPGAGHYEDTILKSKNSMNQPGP
Mitogen-activated protein kinase kinase kinase kinase 5 (Homo sapiens), sequence (Q9Y4K4 whole entry, looked up): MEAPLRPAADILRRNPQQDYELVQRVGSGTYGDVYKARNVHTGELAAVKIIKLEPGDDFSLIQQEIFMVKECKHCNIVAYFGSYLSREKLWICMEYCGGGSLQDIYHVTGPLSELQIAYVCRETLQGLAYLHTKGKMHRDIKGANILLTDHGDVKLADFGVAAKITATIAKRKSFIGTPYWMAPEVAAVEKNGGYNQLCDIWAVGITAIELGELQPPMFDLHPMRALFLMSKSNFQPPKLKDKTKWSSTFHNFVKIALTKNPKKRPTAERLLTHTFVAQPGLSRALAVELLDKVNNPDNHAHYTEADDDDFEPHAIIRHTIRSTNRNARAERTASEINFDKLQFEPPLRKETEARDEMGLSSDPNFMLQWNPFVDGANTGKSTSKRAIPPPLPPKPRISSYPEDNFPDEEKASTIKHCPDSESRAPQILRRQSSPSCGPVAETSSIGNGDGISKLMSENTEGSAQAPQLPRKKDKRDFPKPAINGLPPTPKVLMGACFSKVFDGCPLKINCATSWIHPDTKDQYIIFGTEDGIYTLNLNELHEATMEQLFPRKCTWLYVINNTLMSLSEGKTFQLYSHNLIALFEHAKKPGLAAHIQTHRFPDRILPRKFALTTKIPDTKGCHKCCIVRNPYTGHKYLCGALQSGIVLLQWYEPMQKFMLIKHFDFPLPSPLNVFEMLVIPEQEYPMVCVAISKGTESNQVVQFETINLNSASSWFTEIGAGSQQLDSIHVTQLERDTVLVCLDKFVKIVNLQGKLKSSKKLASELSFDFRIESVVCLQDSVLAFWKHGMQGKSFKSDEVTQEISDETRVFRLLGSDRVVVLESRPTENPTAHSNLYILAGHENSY
EML4-ALK (Homo sapiens), Q9UM73+Q9HC35 [UNDEFINED MUTATION], sequence (Q9HC35 whole entry, looked up, stated change not applied): as the sequence (Q9HC35 whole entry partner) above
EML4-ALK (Homo sapiens), Q9UM73+Q9HC35 [UNDEFINED MUTATION], sequence (Q9UM73 whole entry, looked up, stated change not applied): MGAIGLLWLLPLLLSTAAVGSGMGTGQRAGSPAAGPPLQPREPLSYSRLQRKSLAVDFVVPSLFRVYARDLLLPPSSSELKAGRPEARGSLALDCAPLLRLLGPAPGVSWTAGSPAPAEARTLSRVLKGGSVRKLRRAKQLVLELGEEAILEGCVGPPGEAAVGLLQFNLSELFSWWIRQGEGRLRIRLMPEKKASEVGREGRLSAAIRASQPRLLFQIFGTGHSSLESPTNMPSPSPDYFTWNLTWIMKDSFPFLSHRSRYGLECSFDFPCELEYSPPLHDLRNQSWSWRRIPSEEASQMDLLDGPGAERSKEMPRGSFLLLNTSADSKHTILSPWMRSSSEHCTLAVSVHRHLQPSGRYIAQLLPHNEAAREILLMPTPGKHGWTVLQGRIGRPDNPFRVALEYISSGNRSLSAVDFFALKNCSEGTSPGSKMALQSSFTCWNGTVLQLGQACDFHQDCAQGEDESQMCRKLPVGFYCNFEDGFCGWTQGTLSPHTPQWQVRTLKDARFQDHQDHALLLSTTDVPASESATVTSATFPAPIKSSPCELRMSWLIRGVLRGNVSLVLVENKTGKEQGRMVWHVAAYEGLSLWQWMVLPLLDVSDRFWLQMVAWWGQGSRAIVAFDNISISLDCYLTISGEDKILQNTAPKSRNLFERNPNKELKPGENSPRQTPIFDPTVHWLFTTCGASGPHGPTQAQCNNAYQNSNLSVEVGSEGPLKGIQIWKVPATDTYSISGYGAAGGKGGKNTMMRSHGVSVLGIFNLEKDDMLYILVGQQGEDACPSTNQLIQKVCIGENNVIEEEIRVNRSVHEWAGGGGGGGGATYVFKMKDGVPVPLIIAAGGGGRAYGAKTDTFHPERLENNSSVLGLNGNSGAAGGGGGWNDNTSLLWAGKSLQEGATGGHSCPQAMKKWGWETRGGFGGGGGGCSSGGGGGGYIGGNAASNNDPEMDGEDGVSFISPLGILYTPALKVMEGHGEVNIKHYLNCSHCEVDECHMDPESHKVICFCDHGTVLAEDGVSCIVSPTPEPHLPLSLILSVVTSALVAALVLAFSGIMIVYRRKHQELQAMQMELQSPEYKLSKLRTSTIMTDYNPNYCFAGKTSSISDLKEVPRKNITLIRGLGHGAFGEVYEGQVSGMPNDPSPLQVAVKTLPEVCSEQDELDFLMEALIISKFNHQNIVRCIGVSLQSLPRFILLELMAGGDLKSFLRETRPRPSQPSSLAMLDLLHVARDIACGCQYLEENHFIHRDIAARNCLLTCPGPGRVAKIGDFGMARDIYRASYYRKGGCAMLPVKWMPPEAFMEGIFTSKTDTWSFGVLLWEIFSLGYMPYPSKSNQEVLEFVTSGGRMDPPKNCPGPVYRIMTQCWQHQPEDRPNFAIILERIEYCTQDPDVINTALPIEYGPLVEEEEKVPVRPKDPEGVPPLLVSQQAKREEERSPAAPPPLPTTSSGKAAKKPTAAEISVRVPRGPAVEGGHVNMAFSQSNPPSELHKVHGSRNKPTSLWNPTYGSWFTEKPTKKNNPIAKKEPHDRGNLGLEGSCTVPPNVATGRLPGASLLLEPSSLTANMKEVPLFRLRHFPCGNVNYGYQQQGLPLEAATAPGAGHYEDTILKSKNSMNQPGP

`COCC(=O)NC/C=C/c1ccc2ncnc(Nc3ccc(Oc4ccc(C)nc4)c(C)c3)c2c1` [CP-724714]: the % of control was found to be 86% in assay [1] and 100% in assay [2].

In assay [3], `CCN(CC)CCCCNc1ncc2cc(-c3cc(OC)cc(OC)c3)c(NC(=O)NC(C)(C)C)nc2n1` gave a % of control of 100%.

Consider `C=CC(=O)Nc1cccc(C(=O)Nc2ccc(Nc3cc(-c4[nH]c(SC)nc4C)ccn3)cc2)c1`, for which the % of control in assay [4] was 80%; in assay [5] (at 1 µM), 104%; in assay [5] (at 5 µM), 106%; on EML4-ALK (Homo sapiens) (at 1 µM) it was 91%; on EML4-ALK (Homo sapiens) (at 5 µM), 89%.

In the case of `CCC(=O)N1CCN(c2ccc(-n3c(=O)ccc4cnc5ccc(-c6cnc7ccccc7c6)cc5c43)cc2C(F)(F)F)CC1`, in assay [6], the % of control amounted to 27%.
